Common to all, as to assay type: cell-based
Data set [1] deals with Human CD34+ stem and progenitor cells. In words: Viability of CD34+ cells after ex vivo treatment with agent. The arrangement: concentration or dose not given beside the values. To be noted: human CD34+ cells from mobilized peripheral blood, 24 hours at 37° C. with agent.
The next data set relates to IDO-1. In words: IDO-1 mRNA level (RT-qPCR) in CD34+ cells after ex vivo treatment with agent. The conditions noted are these: mRNA by RT-qPCR, normalized against untreated cells; human CD34+ cells, 24 hours at 37° C. Here is the method: (§1) Human CD34+ stem and progenitor cells isolated from mobilized peripheral blood from three donors were ex vivo treated in […]® (StemCell Technologies) for 24 hours at 37° C. with one or more exogenous agents. Following cell treatments, gross mRNA levels were normalized against gross mRNA levels from the untreated cells […]. Levels of PD-L1 or IDO-1 mRNA were quantified from PICOPURE® isolated mRNA (Life Technologies) using an Assay on Demand TAQMAN® RT-qPCR assay (Life Technologies).
(In qPCR the cycle at which signal appears reflects the starting amount.)

In another data set the test system is PD-L1 (CD274). Description: PD-L1 mRNA level (RT-qPCR) in CD34+ cells after ex vivo treatment with agent. The conditions noted are these: mRNA by RT-qPCR, normalized against untreated cells; human CD34+ cells, 24 hours at 37° C. Here is the method: as §1

Structures can show the parent of a compound that is named as a salt.

Take `Nc1ccc(C(=O)O)c(O)c1` [4-aminosalicylic acid]: the “% Viability” value in data set [1] (Table 2) was found to be 85.3%. Further, in the data set on IDO-1, the IDO-1 fold change was 4.07 fold.
Turning to `C[C@H]1C[C@H]2[C@@H]3CCC4=CC(=O)C=C[C@]4(C)[C@@]3(F)[C@@H](O)C[C@]2(C)[C@@]1(O)C(=O)CO` [Betamethasone], the “% Viability” value in data set [1] (Table 1) amounted to 86.8%. In the data set on PD-L1 (CD274), this compound came in with a PD-L1 fold change of 4.16 fold.
Consider `CCC(=O)O[C@]1(C(=O)CCl)[C@@H](C)C[C@H]2[C@@H]3CCC4=CC(=O)C=C[C@]4(C)[C@@]3(F)[C@@H](O)C[C@@]21C` [Clobetasol propionate], for which, in data set [1] (Table 1), the “% Viability” value stood at 83%. Further, in the data set with PD-L1 (CD274), the PD-L1 fold change is 9.27 fold.
On to `C[C@@H]1C[C@H]2[C@@H]3C[C@H](F)C4=CC(=O)C=C[C@]4(C)[C@@]3(Cl)[C@@H](O)C[C@]2(C)[C@H]1C(=O)COC(=O)C(C)(C)C` [Clocortolone pivalate], for which the “% Viability” value in data set [1] (Table 1) is 84.9%. In the data set on PD-L1 (CD274), this compound yielded a PD-L1 fold change of 8.64 fold.
For the compound `CN(C)CCC=C1c2ccccc2C=Cc2ccccc21` [Cyclobenzaprine], in data set [1] (Table 2), the “% Viability” value came out at 72.7%. The compound also returned an IDO-1 fold change in the data set on IDO-1 of 4.65 fold.
As to `CN[C@@H]1[C@H](O[C@H]2[C@H](O[C@H]3[C@H](O)[C@@H](O)[C@H](NC(=N)N)[C@@H](O)[C@@H]3NC(=N)N)O[C@@H](C)[C@]2(O)CO)O[C@@H](CO)[C@H](O)[C@H]1O` [Dihydrostreptomycin sulfate], the “% Viability” value in data set [1] (Table 2) worked out at 84.5%. Moreover, the IDO-1 fold change in the data set on IDO-1 was 6.19 fold.
Regarding `Nc1nc(F)nc2c1ncn2[C@@H]1O[C@H](CO)[C@@H](O)[C@@H]1O` [Fludarabine], in data set [1] (Table 2), the “% Viability” value was 82.5%. Besides, the IDO-1 fold change in the data set with IDO-1 amounted to 4.22 fold.
With `CC1(C)O[C@@H]2C[C@H]3[C@@H]4C[C@H](F)C5=CC(=O)C=C[C@]5(C)[C@@]4(F)[C@@H](O)C[C@]3(C)[C@]2(C(=O)CO)O1` [Fluocinolone acetonide], the “% Viability” value in data set [1] (Table 1) was 82.9%. Besides, the PD-L1 fold change with PD-L1 (CD274) is 10.58 fold.
For the compound `OCCN1CCN(CCCN2c3ccccc3Sc3ccc(C(F)(F)F)cc32)CC1` [Fluphenazine], the “% Viability” value in data set [1] (Table 1) and in data set [1] (Table 2) was 86% each time. The PD-L1 fold change with PD-L1 (CD274) came out at 7.58 fold. Also, the IDO-1 fold change with IDO-1 amounted to 14.19 fold.
For the compound `Nc1ccn([C@@H]2O[C@H](CO)[C@@H](O)C2(F)F)c(=O)n1` [Gemcitabine], the “% Viability” value in data set [1] (Table 2) is given as 81.4%. In addition, the IDO-1 fold change in the data set on IDO-1 is 30.13 fold.
As to `CNC(C)CCC=C(C)C.CNC(C)CCC=C(C)C.O=C(O)[C@@H](O)[C@H](O)[C@H](O)[C@@H](O)C(=O)O` [Isometheptene mucate], in data set [1] (Table 2), the “% Viability” value was determined as 83.7%. The compound also returned an IDO-1 fold change in the data set on IDO-1 of 6.98 fold.
Take `N#Cc1ccc(C(c2ccc(C#N)cc2)n2cncn2)cc1` [Letrozole]: in data set [1] (Table 2), the “% Viability” value is reported as 81.3%. This compound also displayed an IDO-1 fold change with IDO-1 of 4.38 fold.
Take `NC(=O)N/N=C/c1ccc([N+](=O)[O-])o1` [Nitro fural]: in data set [1] (Table 1), the “% Viability” value is on record as 87.2%. Further, the PD-L1 fold change in the data set on PD-L1 (CD274) is 10.28 fold.
As to `CNCCCC1c2ccccc2C=Cc2ccccc21` [Protriptyline], the “% Viability” value in data set [1] (Table 2) came out at 79.4%. In addition, the IDO-1 fold change with IDO-1 is 5.74 fold.
The corresponding values for `Cc1scc2c1N(C(=O)CN1CCN(C)CC1)c1ccccc1NC2=O` [Telenzepine] are 88.9% and 4.82 fold.
As to `C=CC(N)CCC(=O)O` (stereo not drawn) [Vigabatrin], the “% Viability” value in data set [1] (Table 1) worked out at 67%. The PD-L1 fold change in the data set with PD-L1 (CD274) amounted to 16.76 fold.
Consider Tyrphostin AG 835, for which the “% Viability” value in data set [1] (Table 1) stood at 61.3%. Moreover, in the data set with PD-L1 (CD274), the PD-L1 fold change is 32.57 fold.

(Values after US20250333702A1, “CELLS WITH INCREASED IMMUNO-REGULATORY PROPERTIES AND METHODS FOR THEIR USE AND MANUFACTURE” (The Children's Medical Center Corporation, priority 2015, published 2025).)
